Patent US9521846B2, “Template-fixed peptidomimetics with antimicrobial activity” (priority 2006, dated 2016)
≈ marks a conversion by molar mass, not a printed value. Like-named read-outs stand apart in the source and are kept apart here. Non-standard residues stand in square brackets, D forms with d. Residues, ends and D or L forms follow the SMILES beside them. Dab = NCC[C@H](N)C(=O)O; Abu = CC[C@H](N)C(=O)O

Columns and labels:
P. aeruginosa ATCC 27853 = format: cell-based, Pseudomonas aeruginosa
How it was run: (§1)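 Modified NCCLS broth microdilution; MH broth + 0.02% BSA; inoculum ~10^6 CFU/ml (0.5 McFarland); 1:1 with 2-fold serial peptide dilutions.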

[1] = test system: Pseudomonas aeruginosa IMP 1 Livermore 3140; format: cell-based
How it was run: as §1

[2] = test system: Pseudomonas aeruginosa P1021903; format: cell-based
How it was run: as §1

[3] = test system: Pseudomonas aeruginosa P1021913; format: cell-based
How it was run: as §1

[4] = test system: Pseudomonas aeruginosa P8191900; format: cell-based
How it was run: as §1

HELA cells (Acc57) = test: Cytotoxicity assay, MTT reduction (LC 50, GI 50); format: cell-based
How it was run: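 Read-out was MTT reduction (A595) after 48 h peptide exposure (12.5–50 μM, triplicates) of HeLa cells plated at 7.0×10^3/well and precultured 24 h. Growth % was normalised to a time-zero reading. Linear trend interpolation gave the concentration at −50% growth (LC50) and at 50% growth (GI50).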

[5] = test system: human red blood cells (hRBC); test: Hemolysis; format: cell-based
[6] = Plasma stability, human plasma; format: in vitro ADME
[7] = Plasma stability, rat plasma; format: in vitro ADME
[8] = test system: Pseudomonas aeruginosa (ATCC 27853); test: In vivo septicemia assay; parameters: species or system CD-1 mice; conditions: after 1 and 5 h, groups of 6 mice
Method: Groups of 6 CD-1 (Crl.) derived male mice weighing 24±2 g were used. The mice were each inoculated intravenously (IV) with an LD90-100 of Pseudomonas aeruginosa (ATCC 27853) (9×10^6 CFU/0.5 ml/mouse) in brain heart infusion broth without 5% mucin. Compound at doses of 5, 2.5, 1, 0.5, 0.25 and 0.1 mg/kg, vehicle (0.9% NaCl, 10 ml/kg) was administered subcutaneously (SC) to test animals at 1 hour after bacterial inoculation. Also, an additional group was treated twice with compound at a dose of 5 mg/kg at 1 and 6 hours after bacterial inoculation. Mortality was recorded once daily for 7 days following the bacterial inoculation and an increase of survival of the animals by 50 percent or more (^3 50%) after the bacterial inoculation, relative to vehicle control, indicates significant antimicrobial effect. The MED (ED50) was determined by nonlinear regression using Graph-Pad Prism (Graph Pad Software, USA).
Septicaemia experiment in mice: LD90-100 of Pseudomonas aeruginosa (ATCC 27853) (9×10^6 CFU/0.5 ml/mouse IV and after 1 h Ex. 1 s.c.
Septicaemia experiment in mice: LD90-100 of Pseudomonas aeruginosa (ATCC 27853) (9×10^6 CFU/0.5 ml/mouse IV), and after 1 and 5 h Ex. 40 s.c.
Septicaemia experiment in mice: LD90-100 of Pseudomonas aeruginosa (ATCC 27853) (9×10^6 CFU/0.5 ml/mouse IV), and after 1 and 5 h Ex. 50 s.c.

| Compound | MIC P. aeruginosa ATCC 27853 (P. aeruginosa ATCC 27853; ATCC 27853) [µg/mL] | MIC P. aeruginosa IMP1 Livermore 3140 ([1]; IMP 1 Livermore 3140) [µg/mL] | MIC P. aeruginosa P1021903 ([2]; P1021903) [µg/mL] | MIC P. aeruginosa P1021913 ([3]; P1021913) [µg/mL] | MIC P. aeruginosa P8191900 ([4]; P8191900) [µg/mL] | Cytotoxicity GI50 Hela cells (HELA cells (Acc57)) [µM] | Hemolysis at 100 μg/ml [5]; 100 [%] | Stability human Plasma t1/2 [6] [h] | Stability rat Plasma t1/2 [7] [h] | Average MIC (P. aeruginosa) [µg/mL] | further results |
| --- | --- | --- | --- | --- | --- | --- | --- | --- | --- | --- | --- |
| CC[C@H](C)[C@@H]1NC(=O)[C@H](Cc2c[nH]c3ccccc23)NC(=O)[C@H]([C@@H](C)O)NC(=O)[C@@H]2CCCN2C(=O)[C@H]2CCCN2C(=O)[C@H](CCN)NC(=O)CNC(=O)[C@H](CCN)NC(=O)[C@H](CCN)NC(=O)[C@H](Cc2c[nH]c3ccccc23)NC(=O)[C@H](CCN)NC(=O)[C@H](CCN)NC(=O)[C@H](CCCCN)NC(=O)[C@H](CCN)NC1=O [Example 2] (cyclo(TWI[Dab]K[Dab][Dab]W[Dab][Dab]G[Dab][dP]P)) | 0.04 (≈ 0.0255 µM) | 0.24 (≈ 0.153 µM) | 0.16 (≈ 0.102 µM) | 0.18 (≈ 0.115 µM) | 0.10 (≈ 0.0638 µM) | 50 | 0.3 | 5 | 5 | 0.15 |  |
| CC[C@@H]1NC(=O)[C@H](CCN)NC(=O)[C@H](CCN)NC(=O)[C@H](Cc2c[nH]c3ccccc23)NC(=O)[C@H](CCN)NC(=O)[C@H](CCN)NC(=O)[C@H](CCCCN)NC(=O)[C@H](CCN)NC(=O)[C@H]([C@@H](C)CC)NC(=O)[C@H](Cc2c[nH]c3ccccc23)NC(=O)[C@H]([C@@H](C)O)NC(=O)[C@@H]2CCCN2C(=O)[C@H]2CCCN2C(=O)[C@H](CCN)NC1=O [Example 6] (cyclo(TWI[Dab]K[Dab][Dab]W[Dab][Dab][Abu][Dab][dP]P)) | 0.05 (≈ 0.0313 µM) | 0.24 (≈ 0.15 µM) | 0.09 (≈ 0.0564 µM) | 0.16 (≈ 0.1 µM) | 0.10 (≈ 0.0627 µM) | 50 | 0.2 | 5 | 5 | 0.13 |  |
| CC[C@H](C)[C@@H]1NC(=O)[C@H](Cc2c[nH]c3ccccc23)NC(=O)[C@H]([C@@H](C)O)NC(=O)[C@@H]2CCCN2C(=O)[C@H]2CCCN2C(=O)[C@H](CCN)NC(=O)[C@H]([C@@H](C)O)NC(=O)[C@H](CCN)NC(=O)[C@H](CCN)NC(=O)[C@H](Cc2c[nH]c3ccccc23)NC(=O)[C@H](CCN)NC(=O)[C@H](CCN)NC(=O)[C@H](CCCCN)NC(=O)[C@H](CCN)NC1=O [Example 16] (cyclo(TWI[Dab]K[Dab][Dab]W[Dab][Dab]T[Dab][dP]P)) | 0.05 (≈ 0.031 µM) | 0.24 (≈ 0.149 µM) | 0.05 (≈ 0.031 µM) | 0.10 (≈ 0.0621 µM) | 0.09 (≈ 0.0559 µM) | 50 | 0.1 | 5 | 5 | 0.11 |  |
| CC[C@H](C)[C@@H]1NC(=O)[C@H](Cc2c[nH]c3ccccc23)NC(=O)[C@H](C)NC(=O)[C@@H]2CCCN2C(=O)[C@H]2CCCN2C(=O)[C@H](CCN)NC(=O)[C@H](C)NC(=O)[C@H](CCN)NC(=O)[C@H](CCN)NC(=O)[C@H](Cc2c[nH]c3ccccc23)NC(=O)[C@H](CCN)NC(=O)[C@H](CCN)NC(=O)[C@H](CCCCN)NC(=O)[C@H](CCN)NC1=O [Example 22] (cyclo(AWI[Dab]K[Dab][Dab]W[Dab][Dab]A[Dab][dP]P)) | 0.02 (≈ 0.0129 µM) | 0.24 (≈ 0.155 µM) | 0.09 (≈ 0.058 µM) | 0.16 (≈ 0.103 µM) | 0.09 (≈ 0.058 µM) | 50 | 0.2 | 5 | 5 | 0.12 |  |
| CC[C@H](C)[C@@H]1NC(=O)[C@H](Cc2c[nH]c3ccccc23)NC(=O)[C@H]([C@@H](C)O)NC(=O)[C@@H]2CCCN2C(=O)[C@H]2CCCN2C(=O)[C@H](CCN)NC(=O)[C@H](C)NC(=O)[C@H](CCN)NC(=O)[C@H](CCN)NC(=O)[C@H](Cc2c[nH]c3ccccc23)NC(=O)[C@H](CCN)NC(=O)[C@H](CCN)NC(=O)[C@H](CCCCN)NC(=O)[C@H](CCCCN)NC1=O [Example 24] (cyclo(TWIKK[Dab][Dab]W[Dab][Dab]A[Dab][dP]P)) |  |  |  |  |  |  |  | 5 | 5 |  | MIC P. aeruginosa ATCC 27853 (P. aeruginosa ATCC 27853; Mueller-Hinton broth): 0.05 µg/mL (≈ 0.0311 µM); MIC P. aeruginosa IMP1 Livermore 3140 ([1]; Mueller-Hinton broth): 0.24 µg/mL (≈ 0.149 µM); MIC P. aeruginosa P1021903 ([2]; Mueller-Hinton broth): 0.08 µg/mL (≈ 0.0497 µM); MIC P. aeruginosa P1021913 ([3]; Mueller-Hinton broth): 0.16 µg/mL (≈ 0.0994 µM); MIC P. aeruginosa P8191900 ([4]; Mueller-Hinton broth): 0.16 µg/mL (≈ 0.0994 µM); Hemolysis at 100 μg/ml ([5]; 100 μg/ml of peptide): 0.1%; Average MIC (P. aeruginosa; average over the five P. aeruginosa strains, Mueller-Hinton broth): 0.14 µg/mL |
| CC[C@H](C)[C@@H]1NC(=O)[C@H](Cc2c[nH]c3ccccc23)NC(=O)[C@H]([C@@H](C)O)NC(=O)[C@@H]2CCCN2C(=O)[C@H]2CCCN2C(=O)[C@H](CCN)NC(=O)[C@H](C)NC(=O)[C@H](CCN)NC(=O)[C@H](CCN)NC(=O)[C@H](Cc2c[nH]c3ccccc23)NC(=O)[C@H](CCN)NC(=O)[C@H](CCCCN)NC(=O)[C@H](CCCCN)NC(=O)[C@H](CCN)NC1=O [Example 25] (cyclo(TWI[Dab]KK[Dab]W[Dab][Dab]A[Dab][dP]P)) | 0.05 (≈ 0.0311 µM) | 0.24 (≈ 0.149 µM) | 0.05 (≈ 0.0311 µM) | 0.13 (≈ 0.0808 µM) | 0.10 (≈ 0.0622 µM) | 50 | 0.1 | 5 | 5 | 0.11 |  |
| CC[C@H](C)[C@@H]1NC(=O)[C@H](Cc2c[nH]c3ccccc23)NC(=O)[C@H]([C@@H](C)O)NC(=O)[C@@H]2CCCN2C(=O)[C@H]2CCCN2C(=O)[C@H](CCCCN)NC(=O)[C@H](C)NC(=O)[C@H](CCN)NC(=O)[C@H](CCN)NC(=O)[C@H](Cc2c[nH]c3ccccc23)NC(=O)[C@H](CCN)NC(=O)[C@H](CCN)NC(=O)[C@H](CCCCN)NC(=O)[C@H](CCN)NC1=O [Example 28] (cyclo(TWI[Dab]K[Dab][Dab]W[Dab][Dab]AK[dP]P)) | 0.04 (≈ 0.0249 µM) | 0.24 (≈ 0.149 µM) | 0.07 (≈ 0.0435 µM) | 0.16 (≈ 0.0994 µM) | 0.10 (≈ 0.0622 µM) | 50 | 0.1 | 5 | 5 | 0.12 |  |
| CC[C@H](C)[C@@H]1NC(=O)[C@H](Cc2c[nH]c3ccccc23)NC(=O)[C@H]([C@@H](C)O)NC(=O)[C@@H]2CCCN2C(=O)[C@H]2CCCN2C(=O)[C@H](CCC(N)=O)NC(=O)[C@H](C)NC(=O)[C@H](CCN)NC(=O)[C@H](CCN)NC(=O)[C@H](Cc2c[nH]c3ccccc23)NC(=O)[C@H](CCN)NC(=O)[C@H](CCN)NC(=O)[C@H](CCCCN)NC(=O)[C@H](CCC(N)=O)NC1=O [Example 40] (cyclo(TWIQK[Dab][Dab]W[Dab][Dab]AQ[dP]P)) | 0.25 (≈ 0.153 µM) | 1.00 (≈ 0.611 µM) | 0.50 (≈ 0.305 µM) | 0.50 (≈ 0.305 µM) | 0.50 (≈ 0.305 µM) | 50 | 0.7 |  |  | 0.55 | Dead ([8]; 2 × 0.1 mg/kg): 6; Survivors ([8]; 2 × 0.1 mg/kg): 0; Dead ([8]; 2 × 0.3 mg/kg): 6; Survivors ([8]; 2 × 0.3 mg/kg): 0; Dead ([8]; 2 × 1 mg/kg): 2; Survivors ([8]; 2 × 1 mg/kg): 4; Dead ([8]; 2 × 3 mg/kg): 0; Survivors ([8]; 2 × 3 mg/kg): 6; Dead ([8]; 2 × 10 mg/kg): 0; Survivors ([8]; 2 × 10 mg/kg): 6 |
